Experimental data: patent US6905852B1, “Herbicide-resistant protoporphyrinogen oxidase isolated from Nicotiana tabacum” (Nihon Nohyaku Co., Ltd., priority 1997, dated 2005)
Where two headings read alike, the source gives them in different places.

Legend:
[1] = biological target: T1, E. coli SASX38 strain having pBAtPX-C with Arabidopsis thaliana wild type protoporphyrinogen oxidase gene (Arabidopsis thaliana, UniProt P55826); test: Growth inhibition of E. coli SASX38 (liquid culture with shaking); format: cell-based
T1 construct: expressed in transfected cells; host or cells: E. coli SASX38 (hemG-deficient) carrying pBAtPX-C (pBluescript SK(-))
T1 sequence (P55826 35-537): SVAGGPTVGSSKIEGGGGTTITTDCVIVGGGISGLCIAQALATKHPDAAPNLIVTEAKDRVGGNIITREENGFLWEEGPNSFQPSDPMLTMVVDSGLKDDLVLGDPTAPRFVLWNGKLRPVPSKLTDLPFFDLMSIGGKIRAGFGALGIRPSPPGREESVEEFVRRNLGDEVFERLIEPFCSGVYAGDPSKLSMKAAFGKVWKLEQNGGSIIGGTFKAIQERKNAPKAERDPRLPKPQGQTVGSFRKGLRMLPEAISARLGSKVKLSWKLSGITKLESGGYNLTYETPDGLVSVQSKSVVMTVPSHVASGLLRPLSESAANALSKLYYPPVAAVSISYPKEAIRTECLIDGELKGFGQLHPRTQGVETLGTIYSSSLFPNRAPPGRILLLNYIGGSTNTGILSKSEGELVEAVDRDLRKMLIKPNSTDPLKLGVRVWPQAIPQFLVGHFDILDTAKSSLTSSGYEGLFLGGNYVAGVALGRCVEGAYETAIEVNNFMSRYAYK
Method: (§1) The E. coli SASX38 strain containing either of the above-described two kinds of plasmid was cultured with shaking in LB liquid medium containing 50 μg/ml of ampicillin at 28° C. for overnight.

[2] = biological target: T2, E. coli SASX38 strain having pBAtPX-RC with Arabidopsis thaliana resistant type protoporphyrinogen oxidase cDNA (Arabidopsis thaliana, UniProt P55826, A220V); test: as above; format: cell-based; settings: for R/S a) Arabidopsis thaliana: Resistant type/Wild type
T2 construct: expressed in transfected cells; host or cells: E. coli SASX38 (hemG-deficient) carrying pBAtPX-RC (pBluescript SK(-))
T2 sequence (P55826 35-537 A220V): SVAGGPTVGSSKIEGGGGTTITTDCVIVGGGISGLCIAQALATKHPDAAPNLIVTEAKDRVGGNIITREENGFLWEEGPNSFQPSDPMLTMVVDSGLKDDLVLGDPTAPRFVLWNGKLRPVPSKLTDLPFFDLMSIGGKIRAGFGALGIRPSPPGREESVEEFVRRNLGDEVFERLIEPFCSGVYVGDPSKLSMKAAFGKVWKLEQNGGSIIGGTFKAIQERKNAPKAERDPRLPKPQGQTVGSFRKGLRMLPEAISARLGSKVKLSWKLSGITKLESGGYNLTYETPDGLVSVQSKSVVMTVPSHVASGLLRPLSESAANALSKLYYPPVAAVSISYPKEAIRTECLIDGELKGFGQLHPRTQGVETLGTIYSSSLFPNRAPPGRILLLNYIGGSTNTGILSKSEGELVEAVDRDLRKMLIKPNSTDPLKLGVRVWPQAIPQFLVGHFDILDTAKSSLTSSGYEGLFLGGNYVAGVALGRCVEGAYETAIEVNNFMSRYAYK
Method: as §1

[3] = biological target: T3, E. coli SASX38 strain having pCR-HC with tobacco wild type protoporphyrinogen oxidase cDNA (Nicotiana tabacum, UniProt O24163); test: as above; format: cell-based
T3 construct: expressed in transfected cells; host or cells: E. coli SASX38 (hemG-deficient) carrying pCR-HC
T3 sequence (O24163 51-548): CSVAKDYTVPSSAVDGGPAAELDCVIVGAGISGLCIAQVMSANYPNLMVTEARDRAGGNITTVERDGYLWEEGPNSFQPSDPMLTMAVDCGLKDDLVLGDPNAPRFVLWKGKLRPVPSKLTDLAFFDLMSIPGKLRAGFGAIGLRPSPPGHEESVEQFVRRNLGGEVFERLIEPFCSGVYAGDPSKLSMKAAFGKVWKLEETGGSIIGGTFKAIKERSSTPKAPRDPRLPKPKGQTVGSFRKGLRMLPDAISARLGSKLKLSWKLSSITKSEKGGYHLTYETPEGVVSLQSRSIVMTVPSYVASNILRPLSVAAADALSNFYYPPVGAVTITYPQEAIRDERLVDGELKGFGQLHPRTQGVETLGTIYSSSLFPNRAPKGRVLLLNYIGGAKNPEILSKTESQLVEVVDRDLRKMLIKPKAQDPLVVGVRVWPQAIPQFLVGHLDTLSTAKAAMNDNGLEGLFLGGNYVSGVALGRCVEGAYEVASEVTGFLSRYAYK
Method: as §1

[4] = biological target: T4, E. coli SASX38 strain having pCR-RC with tobacco resistant type protoporphyrinogen oxidase gene (Nicotiana tabacum, UniProt O24163, A174P/A191P/A231V/T382S); test: as above; format: cell-based
T4 construct: expressed in transfected cells; host or cells: E. coli SASX38 (hemG-deficient) carrying pCR-RC
T4 sequence (O24163 whole entry A174P/A191P/A231V/T382S): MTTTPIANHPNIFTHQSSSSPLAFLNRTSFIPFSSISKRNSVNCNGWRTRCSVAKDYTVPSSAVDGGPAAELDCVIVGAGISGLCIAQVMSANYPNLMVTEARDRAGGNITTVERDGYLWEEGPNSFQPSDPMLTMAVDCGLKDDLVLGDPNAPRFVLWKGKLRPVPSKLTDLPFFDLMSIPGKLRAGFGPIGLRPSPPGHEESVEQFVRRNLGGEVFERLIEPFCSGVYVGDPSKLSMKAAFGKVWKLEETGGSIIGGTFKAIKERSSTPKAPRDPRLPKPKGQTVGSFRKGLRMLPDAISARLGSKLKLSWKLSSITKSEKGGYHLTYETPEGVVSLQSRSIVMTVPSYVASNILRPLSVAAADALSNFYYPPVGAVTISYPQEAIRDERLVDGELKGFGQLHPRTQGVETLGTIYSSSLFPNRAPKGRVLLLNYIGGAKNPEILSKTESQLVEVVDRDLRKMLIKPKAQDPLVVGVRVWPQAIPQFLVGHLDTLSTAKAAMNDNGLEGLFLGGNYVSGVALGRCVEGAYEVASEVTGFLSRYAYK
Method: as §1

[5] = test system: E. coli SASX38 strain having pCR-RC with tobacco resistant type protoporphyrinogen oxidase gene; test: as above; format: cell-based, Nicotiana tabacum; settings: for R/S b) Tobacco: Resistant type/Wild type; for Superiority c): b/a: tobacco R/S over Arabidopsis thaliana R/S
Method: as §1

ETR-056 = test: MIC on MS agar medium, cross-resistance to herbicides; format: cell-based, Nicotiana tabacum
Source text: (§2) Further, cross-resistance of a resistant strain tolerant to herbicides with various modes of action was examined. Sensitivity to fomesafen (trade mark: FLEX) and oxadiazon (trade mark: RONSTAR), which are photobleaching herbicide and accumulate protoporphyrin IX; pyrazoxyfen (trademark: PAICER) which is a chlorophyll synthesis inhibitor and causes bleaching; DPX-84 and bialaphos (trademark: BASTA) and glyphosate (trademark: ROUNDUP) which are an inhibitor of the amino acid synthesis; butachlor (trademark: MACHETE) which is a protein synthesis inhibitor; propanil (trademark: STAM) which is an inhibitor of light synthesis photochemical system II and paraquat (trademark: PREEGLOX) which is an inhibitor of photosystem I and produces an active oxygen was compared. Into MS agar medium containing each herbicides, each resistant strain was transplanted and minimum inhibition concentration (MIC) was measured. […] From the above results, ETR-056 was thought to have resistance to an active oxygen caused by overproduction of superoxide dismutase, and ETR-253 was thought to have resistance to many herbicides caused by decreasing of a membrane permeability, and ETR-245 was thought to have resistance caused by mutation of a target enzyme or overproduction of a target enzyme.
(§3) MIC of compound A to the sensitive cell lines, ETR-056, ETR-245 and ETR-253 were measured.

ETR-245 = test: as above; format: cell-based, Nicotiana tabacum
Source text: as §2, §3

ETR-253 = test: as above; format: cell-based, Nicotiana tabacum
Source text: as §2, §3

Sensitive strain = test: as above; format: cell-based, Nicotiana tabacum; settings: Sensitive strain
Source text: as §2, §3

Structure (SMILES) | IC50 [1] [nM] | IC50 [2] [nM] | R/S a) Arabidopsis thaliana [2] | IC50 [3] [nM] | IC50 [4] [nM] | R/S b) Tobacco [5] | Superiority c) [5] | IC50 ([1]; E. coli liquid culture method with shaking, read-out: I50 (nM) Arabidopsis thaliana Wild) [nM] | IC50 ([3]; E. coli liquid culture method with shaking, read-out: I50 (nM) Tobacco Wild) [nM] | MIC (ppm) (ETR-056) | MIC (ppm) (ETR-245) | MIC (ppm) (ETR-253) | MIC (ppm) (Sensitive strain)
CCOC(=O)C(C)Nc1cc(-c2nn(C)c(OC(F)F)c2Cl)c(Cl)cc1Cl (stereo not drawn) [Comp.B, ethyl 2-[5-(4-chloro-5-difluoromethoxy-1-methyl-1H-pyrazol-3-yl)-2,4-dichloro-phenylamino]propionate] | 21 | 18000 | 860 | 2.2 | > 20000 | 9,100 | >10.6 | – | – | – | – | – | –
COc1cc(-c2nn(C)c(OC(F)F)c2Cl)c(F)cc1Cl [Comp.C, 4-chloro-3-(4-chloro-2-fluoro-5-methoxyphenyl)-5-difluoromethoxy-1-methyl-1H-pyrazole] | 3 | 1800 | 600 | 0.25 | 2200 | 8,800 | 14.7 | – | – | – | – | – | –
C#CCOc1cc(-c2nn(C)c(OC(F)F)c2Cl)c(F)cc1Cl [Comp.D, 4-chloro-3-[4-chloro-2-fluoro-5-(2-propynyl)oxyphenyl]-5-difluoromethoxy-1-methyl-1H-pyrazole] | 0.14 | 280 | 2,000 | 0.027 | 670 | 25,000 | 12.5 | – | – | – | – | – | –
CCOC(=O)C(C)Oc1cc(-c2nn(C)c(OC(F)F)c2Cl)c(F)cc1Cl (stereo not drawn) [Comp.E, ethyl 2-[2-chloro-5-(4-chloro-5-difluoromethoxy-1-methyl-1H-pyrazol-3-yl)-4-fluorophenoxy]propionate] | 4.2 | 4000 | 950 | 0.52 | 6300 | 12,000 | 12.6 | – | – | – | – | – | –
CC(C)OC(=O)c1cc(-c2nn(C)c(C(F)(F)F)c2Br)c(F)cc1Cl [Comp.F, 1-methylethyl 5-[4-bromo-1-methyl-5-(trifluoromethyl)-1H-pyrazol-3-yl]-2-chloro-4-fluorobenzoate] | – | 6400 | 280 | – | 15000 | 4,700 | 16.8 | 23 | 3.2 | – | – | – | –
Cn1nc(-c2ccc(Cl)cc2F)c(Cl)c1OC(F)F [Comp.G, 4-chloro-3-(4-chloro-2-fluorophenyl)-5-difluorom ethoxy-1-methyl-1H-pyrazole] | 19 | 8700 | 460 | 3.1 | 17000 | 5,500 | 12.0 | – | – | – | – | – | –
COC(=O)c1ccccc1CS(=O)(=O)NC(=O)Nc1nc(OC)cc(OC)n1 [DPX-84] | – | – | – | – | – | – | – | – | – | 0.01 | 0.01 | 0.1 | 0.01
C[C@H](NC(=O)[C@H](C)NC(=O)[C@@H](N)CCP(C)(=O)O)C(=O)O [bialaphos] | – | – | – | – | – | – | – | – | – | 1 | 1 | 10 | 10
CCCCOCN(C(=O)CCl)c1c(CC)cccc1CC [butachlor] | – | – | – | – | – | – | – | – | – | 100 | 100 | 100 | 100
CS(=O)(=O)NC(=O)c1cc(Oc2ccc(C(F)(F)F)cc2Cl)ccc1[N+](=O)[O-] [fomesafen] | – | – | – | – | – | – | – | – | – | 4 | 4 | 4 | 0.4
O=C(O)CNCP(=O)(O)O [glyphosate] | – | – | – | – | – | – | – | – | – | 230 | 230 | 1000 | 230
CC(C)Oc1cc(-n2nc(C(C)(C)C)oc2=O)c(Cl)cc1Cl [oxadiazon] | – | – | – | – | – | – | – | – | – | 1000 | 1000 | 1000 | 1
C[n+]1ccc(-c2cc[n+](C)cc2)cc1 [paraquat] | – | – | – | – | – | – | – | – | – | 100 | 10 | 10 | 10
CCC(=O)Nc1ccc(Cl)c(Cl)c1 [propanil] | – | – | – | – | – | – | – | – | – | 100 | 100 | 100 | 100
Cc1nn(C)c(OCC(=O)c2ccccc2)c1C(=O)c1ccc(Cl)cc1Cl [pyrazoxyfen] | – | – | – | – | – | – | – | – | – | 100 | 100 | 200 | 100
